The text below walks through data of patent publication US20100143462A1, “NEW CARBAMAZEPHINE FORMULATIONS HAVING INPROVED SOLUBILITY” (NUTRALEASE LTD., priority 2004, published 2010).

The nature of series [1]: Solubilization capacity of microemulsion / concentrate for Carbamazepine. To be noted: 50 wt % aqueous phase (water:PG 1:1), dilution line 7:3, D-limonene:ethanol 1:1, FIG. 2. The class given is physicochemical.
Experimental: When solubilizing a drug in a microemulsion system, the solubilization capacity should be characterized. […] For the 7:3 dilution line (FIG. 2), the 5 gr oil phase concentrate comprises 0.75 gr of D-limonene, 0.75 gr EtOH (each being 15 wt %), and 3.5 gr Tween 60 (70 wt %). The 5 gr oil concentrate is then diluted in an aqueous phase of water:propylene glycol (1:1). For the 8:2 dilution line (FIG. 3) the 5 gr oil phase concentrate comprises 0.5 gr of D-limonene, 0.5 gr EtOH (each being 10 wt %), and 4 gr Tween 60 (80 wt %). The 5 gr oil concentrate is then diluted in an aqueous phase of water:propylene glycol (1:1). For the 9:1 dilution line (FIG. 4) the 5 gr oil phase concentrate comprises 0.25 gr of D-limonene, 0.25 gr EtOH (each being 5 wt %), and 4 gr Tween 60 (90 wt %). The 5 gr oil concentrate is then diluted in an aqueous phase of water:propylene glycol (1:1).
Preparations of the microemulsions and microemulsion concentrate were done in the following manner. The surfactant and the oil phase were mixed at the appropriate ratio, 7:3, 8:2 and 9:1 respectively, to form the concentrate. The solubilization of the drug in the concentrate was determined by solubilizing it to form clear solutions, until the maximal amount was reached. […]
The conditions of series [2]: following a single oral dose; cited from earlier work.

For the compound `NC(=O)N1c2ccccc2C=Cc2ccccc21` [Carbamazepine, 5H-Dibenz(b,f)azepine-5-carboxamide], in series [1], the “solubilization capacity of microemulsion (solubilized Carbamazepine)” value was 3.76%. For the same compound, in series [2], the “elimination half-life of unchanged Carbamazepine in the plasma” value was “approximately 36 hours”.
